Measurements taken from patent publication US4673672A, “Substituted-[hydroxy(tetrahydro)-5-oxo-(2- and 3-furanyl or 2-thienyl)alkoxyphosphinyloxy]-alkanaminium hydroxide, inner salt oxides” (Sandoz Pharmaceuticals Corp., priority 1986, dated 1987).
Structures can show the parent of a compound that is named as a salt.

Key:
[1] = tested on: P815; experiment: Tumor Cell Cytotoxicity test (TCC test), P815; assay type: cell-based; settings: 5 μg, 72 hours; alkaline phosphatase assay
Procedure: (§1) As indicated above, all of the compounds of formula I are anti-tumor agents and are, therefore, useful in inhibiting the growth of various lymphomas, sarcomas, myelomas and leukemia cell lines.
(§2) In flat bottom microtiter plates (Nunc Roskilde, Denmark) were placed Abelson 8.1 lymphoma, YAC, L1210, P815, Meth A fibrosarcoma or fresh human neuroblastoma tumor cells in DMEM+10% fetal calf serum and the tumor cell-containing plates were incubated with 1,3 and 5 μg of the test compound for a period of 6 to 72 hours. The number of tumor cells present in the Abelson 8.1, YAC, L1210 and P815 assays was determined by measuring the alkaline phosphatase as follows:
(§3) The tumor cell plates were centrifuged (500×g) for ten minutes and the supernatant flicked off. Without further washing, 100 μl of buffer containing 20 μl of diethanolamine, 2 μM of MgCl2.6H2 O, 2.5 μM of p-nitrophenylphosphate and 10 mg Triton X-100 were added. The samples were incubated for 60 minutes at room temperature and the enzymatic reaction was terminated by the addition of 100 μl of 0.5N NaOH. The absorbance was then measured at 405 nm using a Titertek Multiskan apparatus.
(§4) At a concentration of 5 μg and an incubation period of 72 hours, the following results were obtained: […]

[2] = tested on: YAC; experiment: Tumor Cell Cytotoxicity test (TCC test), YAC; assay type: cell-based; settings: 5 μg, 72 hours; alkaline phosphatase assay
Procedure: as §1, §2, §3, §4

[3] = tested on: Abelson 8.1 tumor cells; experiment: Influence on Cytotoxicity of ET-18-OCH3 test; assay type: cell-based; settings: 5 μg test compound, 72 hours; mouse bone marrow cell macrophages preincubated with 10 μg ET-18-OCH3 for 24 hours; ET-18-OCH3 alone set at 100%
Procedure: Bone marrow cell macrophages (10^5 /well) obtained from [BALB/CX57/BL6 ]Fl mice were incubated with 10 μg of 1-octadecyl-2-methoxy-3-phosphoryl choline (ET-18-OCH3) for 24 hours in flat bottom microtiter plates (Nunc Roskilde, Denmark), after which time they are centrifuged and washed once. Abelson 8.1 tumor cells in DMEM+10% fetal calf serum and 1,3 and 5 μg of the test compound were then added to the plates. With the cytotoxicity of ET-18-OCH3 (10 μg) alone set at 100%, the inhibition or enhancement of the cytotoxic effect, as measured by an alkaline phosphatase assay, was determined and values recorded after 72 hours for 1, 3 and 5 .eta.g of the test substance. At a concentration of 5 μg, the following results were obtained: […]

[4] = tested on: human neuroblastoma tumor cells; experiment: Tumor Cell Cytotoxicity test (TCC test), fresh human neuroblastoma tumor cells; assay type: cell-based; settings: 5 μg, 72 hours; 3H-thymidine uptake
Procedure: as §1, §2
(§5) The number of tumor cells present in the Meth A fibrosarcoma and human neuroblastoma assays was measured by ^3 H-thymidine uptake as follows:
(§6) After 72 hours, the cells are thoroughly washed, and each well treated with ca. 0.1 μC ^3 H-thymidine. After 4-6 hours, the cells are collected using a commercial cell harvester, and the radioactivity in the […] is measured in a scintillation counter.
as §4

[5] = tested on: Meth A fibrosarcoma; experiment: Tumor Cell Cytotoxicity test (TCC test), Meth A fibrosarcoma; assay type: cell-based; settings: 5 μg, 72 hours; 3H-thymidine uptake
Procedure: as §1, §2, §5, §6, §4

[6] = tested on: Abelson 8.1 lymphoma; experiment: Tumor Cell Cytotoxicity test (TCC test), Abelson 8.1 lymphoma; assay type: cell-based; settings: 5 μg, 72 hours; alkaline phosphatase assay
Procedure: as §1, §2, §3, §4

[7] = tested on: Meth A sarcoma cells; experiment: Meth A sarcoma implanted in CBF1 mice, tumor growth and survival; assay type: in vivo; settings: p.o., 50 μg, 28 days; 7.3×10^6 Meth A sarcoma cells implanted; no control animals survived
From the text: Meth A fibrosarcoma cells were induced in BALB/C mice by administering methylcholanthrene according to the procedure of Old, et al. (L. J. Old, E. A. Boyse, D. A. Clarke, and E. Carswell, Ann. N.Y. Acad. Sci., 101, 80 (1962). These tumor cells were harvested from the peritoneal cavity 10 to 12 days after administration of methylcholanthrene. Ten CBF1 mice of 10-12 week age were each implanted with 7.3×10^6 Meth A sarcoma cells to serve as control. A second group of ten CBF1 mice were each implanted with 7.3×10^6 Meth A sarcoma cells and on day one after implant each mouse was treated p.o. with 5-50 μg of the test compound per day for a total of twenty or twenty-seven days. Tumor growth and survivors were assayed on days 7, 14, 21 and 28 after tumor implantation. Under these conditions, none of the control group animals survived, whereas 5 out of 10 animals which were administered 50 μg of the compound of Example 2 for 28 days survived and 8 out of 10 animals which were administered 50 μg of the compound of Example 5 for 28 days survived.

[8] = tested on: L1210; experiment: Tumor Cell Cytotoxicity test (TCC test), L1210; assay type: cell-based; settings: 5 μg, 72 hours; alkaline phosphatase assay
Procedure: as §1, §2, §3, §4

Compound | % Inhibition P815 [1] [%] | % Inhibition YAC [2] [%] | % Enhancement (of the cytotoxic effect of ET-18-OCH3) [3] [%] | % Inhibition neuro. [4] [%] | % Inhibition Meth A [5] [%] | % Inhibition Abel. [6] | animals survived [7] | % Inhibition L1210 [8] [%]
CCCCCCCCCCCCCCCCCCC1(COP(=O)([O-])OCC[N+](C)(C)C)CCC(=O)O1 (stereo not shown) [Example 2, 2-[hydroxy(tetrahydro)-2-(octadecyl-5-oxo-2-furanyl)methoxyphosphinyloxy]-N,N,N-trimethyl-ethanaminium hydroxide, inner salt-4-oxide] | 84 | 71 | 99.5 | 59 | 98 | 97% | 5 out of 10 | 69
CCCCCCCCCCCCCCCCCCOCC1(COP(=O)([O-])OCC[N+](C)(C)C)CCCO1 (stereo not shown) [Example 5, 2-[(2-octadecyloxymethyltetrahydro-2-furanylmethoxy)-hydroxyphoshphinyloxyl]-N,N,N-trimethylethanaminium hydroxide inner salt-4-oxide] | – | 96 | > 90 | – | – | 98% | 8 out of 10 | –
CCCCCCCCCCCCCCCCCCC1(COP(=O)([O-])OCC[N+](C)(C)C)COC(=O)C1 (stereo not shown) [Example 6, 2-[hydroxy(tetrahydro)-3-(octadecyl-5-oxo-3-furanyl)methoxyphosphinyloxy]-N,N,N-trimethyl ethanaminium hydroxide, inner salt-4-oxide] | – | – | 90 | – | – | 50-70% | – | –
CCCCCCCCCCCCCCCCCCC1(COP(=O)([O-])OCC[N+](C)(C)C)CCOC1 (stereo not shown) [Example 7, 2-[(3-octadecyltetrahydro-3-furanylmethoxy)-hydroxyphosphinyloxy]-N,N,N-trimethyl ethanaminium hydroxide, inner salt-4-oxide] | – | – | 90 | – | – | 70-90% | – | –
